From PubChem BioAssay AID720547 (The Scripps Research Institute Molecular Screening Center, 2013)
Activity calls are given as the source filed them.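 How the source made its calls: active means compound flagged as a likely artifact in this counterscreen, with IC50 of 10 µM or lower; inactive means IC50 above 10 µM.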

tested on: HEK293 Gal4-VP16 luciferase reporter counterscreen, luminescence; experiment: VP16-driven transactivation reporter suppression potency – cell-based, luminescence, HEK293, counter-screen for COUP-TFII inhibitor project, dose response (AID 720547);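 further: potency for lowering the luciferase signal driven by Gal4-VP16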

SMILES | IC50
O=c1c2ccccc2oc2cc(C#CC3(O)CCCCC3)ccc12 | 56.2 µM (inactive)
Cc1nn(C)c(C)c1/C=C/C(=O)c1ccc(Cl)cc1Cl | > 85.4 µM (inactive)
Cc1cc(N2CCN(c3nc4ccccc4s3)CC2)n2ncnc2n1 | > 85.4 µM (inactive)
CC1=CC(=Cc2sc3ccccc3[n+]2C)C=C(C)O1 | 84.1 µM (inactive)
CC1Cc2cc(-c3csc(NC(=O)Cc4cccs4)n3)ccc2N1S(C)(=O)=O (configuration not stated) | 30.5 µM (inactive)
CC1Cc2cc(-c3csc(NC(=O)Cc4ccccc4)n3)ccc2N1S(C)(=O)=O (configuration not stated) | > 85.4 µM (inactive)
CCSc1nc2ccccc2n1C(=O)/C=C/c1ccc(OC)c(OC)c1 | 19.4 µM (inactive)
CC(=O)c1c(C)[nH]c(C(=O)OCCCCN2C(=O)c3ccccc3C2=O)c1C | 63.7 µM (inactive)
NC(=O)c1nnn(Cc2cc(Cl)c(C(=O)c3ccc(Cl)cc3)c(Cl)c2)c1N | > 85.4 µM (inactive)
CC(=O)N[C@@H](C)c1nc2ccccc2n1CCCN1CCN(c2nc(-c3ccc(C)cc3)cs2)CC1 | 57 µM (inactive)
CCc1cc(C(=O)NC2CCCc3c2cnn3-c2cccc(C)c2C)n(C)n1 (configuration not stated) | > 85.4 µM (inactive)
Cc1ccc(-n2nc3c(=O)n(C(C)C(=O)NCCCc4ccccc4)nc(C)c3c2C)cc1 (configuration not stated) | > 85.4 µM (inactive)
O=C(c1cc(COc2cccc3cnccc23)on1)N1CCCC(CCCO)C1 (configuration not stated) | > 85.4 µM (inactive)
Cc1ccc(-n2nc3c(=O)n(C(C)C(=O)NCCC4=CCCCC4)nc(C)c3c2C)cc1 (configuration not stated) | > 28.5 µM (inactive)
Cc1nn(C)c(C)c1CN(Cc1nc(CCC(C)C)no1)C(C)C | > 85.4 µM (inactive)
CCOCCCNC(=S)N1CCN(c2nc(-c3ccc(F)cc3)cs2)CC1 | 45.1 µM (inactive)
O=C(CSc1cc(Cl)ccc1Cl)N/N=C/c1ccc[nH]1 | > 85.4 µM (inactive)
Cc1cc(C(=O)NC2CCCc3c2cnn3-c2ccc(C)c(C)c2)n(C)n1 (configuration not stated) | > 85.4 µM (inactive)
Cc1c(C(=O)N2CCN(Cc3ccc4c(c3)OCO4)CC2)sc2ncnc(N3CCN(c4ccccc4F)CC3)c12 | 62.7 µM (inactive)
COc1ccc2c(c1)[nH]c1c(N3CCN(Cc4ccc5c(c4)OCO5)CC3)ncnc12 | 39.6 µM (inactive)
Cc1ccc(S(=O)(=O)CC2CSc3nc4ccccc4n32)cc1 (configuration not stated) | > 85.4 µM (inactive)
COc1ccc(-n2nnnc2C(c2cc3ccccc3o2)N2CCC(n3c(=O)[nH]c4ccccc43)CC2)cc1 (configuration not stated) | 12.7 µM (inactive)
CC(C)(C)OC(=O)NCCCCCc1cn([C@@H](CO)C(=O)NCCCCCCCCCCC(=O)N2CCN(C(=O)OC(C)(C)C)CC2)nn1 | 13.3 µM (inactive)

SMILES | IC50
Cn1nc(C(C)(C)C)cc1C(=O)NCc1cc(F)cc2c1OCOC2 | > 85.4 µM (inactive)
Cc1cccc2cc(-c3ccccc3)c(-c3ccccc3)c[n+]12 | > 85.4 µM (inactive)
CCC(C)NC(=O)CCC(=O)OC1O[C@H]2OC3(C)CC[C@H]4[C@H](C)CCC(C1C)C24OO3 (some centres not stated) | > 85.4 µM (inactive)
COc1ccccc1-n1c(-c2ccccc2)c[n+]2c1CCc1ccccc1-2 | > 85.4 µM (inactive)
O=C(CSc1nnc(Cn2nnc3ccccc32)o1)N(Cc1ccc(F)cc1)c1ccccc1 | > 85.4 µM (inactive)
COc1ccc(N2CCN(c3ncnc4c3[nH]c3ccccc34)CC2)cc1 | > 85.4 µM (inactive)
COC(=O)C1CCCCN1C(=O)c1cc(COc2cccc3cnccc23)on1 (configuration not stated) | > 85.4 µM (inactive)
Cn1nc(CC(=O)Nc2ccc(N3CCN(C(=O)OC(C)(C)C)CC3)cc2)c2ccccc2c1=O | 81.2 µM (inactive)
Fc1ccc(-n2nnnc2-c2cnc(-c3cccs3)nc2C(F)(F)F)cc1 | 33.4 µM (inactive)
Cc1sc2ncnc(NCCc3ccc(S(N)(=O)=O)cc3)c2c1C | > 85.4 µM (inactive)
CCN(CC)S(=O)(=O)c1ccc(/C=C/C(=O)Nc2ccc(Br)cc2F)cc1 | > 85.4 µM (inactive)
COc1ccc(Cl)cc1Nc1nc(-c2sc(NC(=O)C(C)(C)C)nc2C)cs1 | > 85.4 µM (inactive)
COc1ccc(CCNc2ncnc3c2oc2ccccc23)cc1OC | 56.8 µM (inactive)
Clc1ccc(OCCN2CCN(c3ncnc4sccc34)CC2)cc1 | > 85.5 µM (inactive)
Cn1nccc1C(=O)NC1CCCc2c1cnn2-c1ccc(C(C)(C)C)cc1 (configuration not stated) | > 85.4 µM (inactive)
O=C(Nc1ccc(Oc2ccccc2)cc1)c1csc([C@H]2C[C@H](O)[C@@H](CO)O2)n1 | > 85.4 µM (inactive)
Nc1nc2ccccc2cc1C(=O)NCc1ccc(-c2ccccc2)cc1 | > 85.3 µM (inactive)
O=C(CSc1nnc(-c2cccnc2)s1)Nc1ccnc2ccccc12 | > 85.4 µM (inactive)
CCOc1ccc(-n2c(-c3ccccc3)c[n+]3c2CCCCC3)cc1 | > 85.4 µM (inactive)
Cc1nnsc1NC(=O)OCc1ccc(C(C)(C)C)cc1 | > 85.4 µM (inactive)
CC(=O)c1ccc(N2CCN(C(=S)Nc3ccc(Oc4ccccc4)cc3)CC2)cc1 | > 85.4 µM (inactive)
CCCc1ccc(C(=O)O/N=C(\N)c2ccccn2)cc1 | 36.7 µM (inactive)
CC(=O)c1cccc(NS(=O)(=O)c2ccc(-c3cnc(C4CC4)o3)cc2)c1 | > 85.4 µM (inactive)

SMILES | IC50
Cc1cccc(Nc2nc(NCc3ccco3)c3ccccc3n2)c1 | 53 µM (inactive)
Cc1cc(C)c(CN2CCN(C(=O)Cn3cnc4c(NCc5ccccc5)ncnc43)CC2)c(C)c1 | > 85.4 µM (inactive)
O=C(NC1CCCCCCC1)c1cc(COc2ccc3ncccc3c2)on1 | > 85.4 µM (inactive)
NC(=O)c1ccsc1NC(=O)COC(=O)Cc1cccc2ccccc12 | > 85.4 µM (inactive)
COc1ccc(NC(=O)C2Cc3c(-c4ccc5c(c4)OCO5)ccnc3O2)cc1OC (configuration not stated) | > 85.4 µM (inactive)
COc1ccc(NC(=O)COc2ccc(N(C)S(=O)(=O)c3ccc(Cl)cc3)cc2)cc1OC | > 85.4 µM (inactive)
O=C(NCC(c1ccco1)N1CCCC1)c1ccc(Cl)c(S(=O)(=O)N2CCc3ccccc32)c1 (configuration not stated) | > 28.5 µM (inactive)
CCOC(=O)c1cnc(-n2nc(C)cc2C)nc1NC1CCCC1 | 50.3 µM (inactive)
Cc1cccc(Nc2nc(-c3c(C)nc4ccccn34)cs2)c1 | 66.3 µM (inactive)
CC(=O)Nc1ccc(SCC(=O)c2cc(C)n(Cc3cccs3)c2C)cc1 | > 85.4 µM (inactive)
CCOC(=O)N1CCC(Nc2ncnc3c2cnn3-c2ccc(C)cc2C)CC1 | > 85.4 µM (inactive)
COc1ccc(CCNc2ncnc3sc(C)cc23)cc1OC | > 28.5 µM (inactive)
Oc1ccc(-[n+]2c(-c3ccccc3)cc(-c3ccccc3)cc2-c2ccccc2)cc1 | 12.6 µM (inactive)
COc1ccccc1-[n+]1c(C)cc(/C=C2\Sc3ccccc3N2C)cc1C | 27.8 µM (inactive)
CC(C)(C)c1ccc(-c2nnc3sc(-c4ccccn4)nn23)cc1 | > 85.4 µM (inactive)
Cc1c(/C(O)=C2/C(=O)C(=O)N(CCN3CCOCC3)C2c2ccco2)cnn1-c1ccccc1 (configuration not stated) | 21.3 µM (inactive)
Cc1ccc(C(=O)NC2CCCc3c2cnn3-c2ccc(F)cc2F)cn1 (configuration not stated) | > 85.4 µM (inactive)
Cc1nn(C)c(C(=O)NCc2ccc(Cl)cc2)c1Cl | > 85.4 µM (inactive)
CCN1/C(=C/c2ccc3cc(C)ccc3[n+]2CC)Sc2ccccc21 | 22 µM (inactive)
C=CCC1(CC=C)CCCN1C(=O)c1cc(COc2ccc(-n3cncn3)cc2)on1 | > 85.4 µM (inactive)
O=c1[nH]c(O)c(N=Nc2ccc3c(c2)OCCO3)c(=O)[nH]1 | 40.4 µM (inactive)
Cc1cc(S(=O)(=O)NCc2ccncc2)c(C)cc1Br | > 85.4 µM (inactive)
CCN(CC)C(=O)c1oc2ccc(S(=O)(=O)N3CC(C)CC(C)C3)cc2c1C (configuration not stated) | 72.3 µM (inactive)

SMILES | IC50
CCOc1cc(S(=O)(=O)NCc2ccncc2)ccc1Cl | > 85.4 µM (inactive)
COc1ccc(CCNC(=O)C(C)n2nc(C)c3c(C)n(-c4ccc(C)cc4)nc3c2=O)c(OC)c1 (configuration not stated) | > 28.5 µM (inactive)
CN(CC1CCCO1)S(=O)(=O)c1ccc(C(=O)Nc2nc3cc4c(cc3s2)OCO4)cc1 (configuration not stated) | > 85.4 µM (inactive)
N#CCSc1nnc(-c2sc3ccccc3c2Cl)o1 | 85.9 µM (inactive)
COc1ccc(-c2csc(NC(=O)C3CCN(c4ncnc5sc(C)c(C)c45)CC3)n2)cc1OC | 25.7 µM (inactive)
NC(=O)[C@H]1CC2(CC(c3cccc(NC(=O)COc4ccc(Cl)cc4)c3)=NO2)CN1C(=O)Cc1ccc([N+](=O)[O-])cc1 (some centres not stated) | > 85.5 µM (inactive)
COc1ccc(CN(C)c2ccc(S(=O)(=O)N3CCN(C)CC3)cc2[N+](=O)[O-])cc1OC | > 85.4 µM (inactive)
COCCn1c(C)c(C)c2c(NCCc3ccccc3)ncnc21 | > 85.3 µM (inactive)
CCC(O)C1CCN(C(=O)c2cc(COc3ccc4ncccc4c3)on2)CC1 (configuration not stated) | > 85.4 µM (inactive)
CCOc1cccc(/C=N/NC(=S)Nc2ccccc2[N+](=O)[O-])c1O | 20.4 µM (inactive)
COc1ccc(CCNc2ncnc3sccc23)cc1OC | > 85.4 µM (inactive)
Cc1ccc(-n2nc3c(=O)n(C(C)C(=O)NCc4ccccc4Cl)nc(C)c3c2C)cc1 (configuration not stated) | 81.8 µM (inactive)
C[n+]1c2n(c3ccccc31)N=C(c1ccccc1)CS2 | > 85.5 µM (inactive)
Cc1cc(C)c(CN2CCN(C(=O)Cn3cnc4c(OCc5ccccc5)ncnc43)CC2)c(C)c1 | > 85.3 µM (inactive)
CCN(CC)S(=O)(=O)c1cccc(NC(=O)COC(=O)c2[nH]c(C)c(C(C)=O)c2C)c1 | > 28.5 µM (inactive)
COc1cc(NC(=O)COc2cc(O)c3c(c2)OC(C)(C)CC3=O)cc(OC)c1OC | > 28.5 µM (inactive)
COc1ccccc1-c1cc2nc(-c3ccccc3)cc(N3CCN(C(=O)c4ccco4)CC3)n2n1 | 10.3 µM (inactive)
CC1CC(C)(O)CC(C(O)CC2CC(=O)NC(=O)C2)C1=O (configuration not stated) | > 85.3 µM (inactive)
C[C@@H]1C[C@@H]([C@H](O)CC2CC(=O)NC(=O)C2)C(=O)[C@@H](C)C1 | > 85.4 µM (inactive)
C=CCC1(CC=C)CCCN1C(=O)c1cc(COc2ccc(C)nc2)on1 | > 85.4 µM (inactive)
CCCCCCn1c2c(c(=N)c3c1CCC3)CCC2 | > 85.4 µM (inactive)
Clc1ccc(-n2ncc3c(NCCN4CCOCC4)ncnc32)cc1 | > 85.4 µM (inactive)
COc1cc(N(C)C)ccc1C=c1c2ccccc2n2c1cc(-c1ccccc1)[n+]2C | 26.3 µM (inactive)
